Key:
[1] = tested on: SARS CoV2 variants (WA, UK B.1.1.7, SA B.1.351); type: cell-based, SARS-CoV-2
SARS-CoV-2 delta = type: cell-based

For `CC(O)c1ccc(CCOc2ccc(CC3SC(=O)NC3=O)cc2)nc1` (stereo not drawn) [LG, leriglitazone], the “expression of CoV2-N gene and S genes” value [1] was “significantly inhibited”, the “expression of inflammatory genes TNFα, IL-6, IL1β” value ([1]; LG 20 uM, all CoV2 strains) was “down-regulated at the transcript level” and the “expression of N and inflammatory gene transcripts” value (SARS-CoV-2 delta) was “decreased expression of N and several inflammatory gene transcripts”.
